Reference: patent US8197838B2, “Sustained release systems of ascorbic acid phosphate” (Advanced Technologies and Regenerative Medicine, LLC., priority 2008, dated 2012)
“And” between values parts separate entries of the source, which are not always exact repeats. Equal values may be shown once.

Assays:
[1] = stated by material safety data sheet from an AZP manufacturer; cited from earlier work
[2] = Color change as indicator of AZP degradation; assay type: physicochemical
Method: (§1) The dried AZP powder vials were sealed with Parafilm and stored under dry a nitrogen blanket until evaluation. The weight loss % was cumulative over both heating conditions. The samples under RT/N2 were stored in nitrogen box. The samples were evaluated for color change of the course of the heating conditions. Color change is an indicator of AZP degradation. […] The higher temperature and shorter time could have the same drying effects on the weight loss. […] Therefore 160° C. and 30 minutes were selected as the upper limits of the drying and processing condition
Films were prepared as follow: The platens of a compression molding instrument (Carver Laboratory Press, Model: 2696) were pre-heated to 205° C. About 3.5 grams of the composition were placed on the platens and heated for 5 minutes. Pressure was applied (about 20,000 lbs) for about 2 minutes. The heating was stopped and the platens and film were allowed to cool to RT under water cooling and continued pressure.

[3] = AZP drying condition evaluation (weight loss on heating); assay type: physicochemical; conditions: for Total Weight loss after 2nd Heat: cumulative; for Weight loss after 1st Heat: Trisodium Salt
Method: The following drying conditions for 2-Phospha-L-ascorbic Acid Trisodium Salt (AZP), (>98% (HPLC), Fluka, Lot#: 1322473 52607420) were tested: 90° C./24 hrs. under vacuum, 160° C./30 minutes under dry nitrogen blanket, and 200° C./30 minutes under dry nitrogen blanket. The times tested include estimating the compounding time and time for sample collection and cooling.
6 glass vials were pre-dried in a vacuum oven at 160° C. for 30 minutes and transferred to a glove box purged with dry nitrogen gas. AZP powder was weighed in each vial (see Table 1) in the glove box.
as §1

2-Phospha-L-ascorbic Acid Trisodium Salt [AZP]
Degradation temperature of AZP [1]: about 260 °C | Color change of AZP powder (indicator of degradation) ([2]; sample number 6, 90° C./Vac 24 hrs then heated to 200° C.): darkest yellow color | Color change of AZP powder (indicator of degradation) ([2]; samples heated at 90° C./24 hrs.): very slight yellow color | Color change of AZP powder (indicator of degradation) ([2]; samples heated for no more than 30 minutes): retained the original white color | Color change of AZP powder (indicator of degradation) ([2]; samples that underwent 2 heat treatments): slightly yellow color | Total Weight loss after 2nd Heat ([3]; 1st 90° C./Vac 24 hours, 2nd 160° C./N2/air 30 min): 6.25 wt % | Total Weight loss after 2nd Heat ([3]; 1st 90° C./Vac 24 hours, 2nd 200° C./N2/air 30 min): 6.75 wt % | Total Weight loss after 2nd Heat ([3]; 1st 90° C./Vac 24 hours, 2nd RT/N2 30 min): 4.41 wt % | Total Weight loss after 2nd Heat ([3]; 1st RT/N2 24 hours, 2nd 160° C./N2/air 30 min): 10.06 wt % | Total Weight loss after 2nd Heat ([3]; 1st RT/N2 24 hours, 2nd 200° C./N2/air 30 min): 8.10 wt % | Total Weight loss after 2nd Heat ([3]; 1st RT/N2 24 hours, 2nd RT/N2 30 min (control)): 0.25 wt % | Weight loss after 1st Heat ([3]; 1st heat for 24 hours 90° C./Vac): 8.09 wt % and 7.59 wt % and 6.43 wt % | Weight loss after 1st Heat ([3]; 1st heat for 24 hours RT/N2): 1.18 wt % and 1.76 wt % and 1.00 wt % | Moisture content of AZP as received ([3]; as received): up to 7.5 % by weight
